How the values were obtained:
Assay type in all cases: cell-based
[1] = test system: Candida zemplinina PYCC 04-501; test: Growth rate in YPD shake flasks (first secondary screen)
Method: (§1) For the first secondary screen, growth rates were measured in YPD media containing 0 g/L malate at pH 3.0 or 200 g/L malate at pH 2.85. Shake flasks were inoculated with biomass harvested from seed flasks grown overnight to an OD600 of 6 to 10. 250 mL baffled growth rate flasks (50 mL working volume) were inoculated to an OD600 of 0.1 and grown at 250 rpm and 30° C. Samples were taken throughout the time course of the assay and analyzed for biomass growth via OD600. The resulting OD600 data was plotted and growth rates were established.
(§2) The same procedures were utilized to screen, rate, and score the original 91 wild-type yeast strains from the primary screen with media containing 0, 30, 45, and 60 g/L lactic acid at pH 3.0 (˜80% free acid). Due to difficulties in properly scoring some very weak growth that occasionally occurred at 60 g/L, 20 strains were re-tested in the primary screen. Of these 20 strains, eight were eliminated due to very slow growth relative to the rest of the test group. The remaining 12 strains were advanced into secondary screening. The secondary screen for lactic acid was the same as that described above for malate, except for changes in concentrations and pH values. Growth rates were measured at 0 g/L lactic acid, pH 3.0 and 50 g/L lactic acid, pH 2.85, and glucose consumption rates were measured in the presence of 50 g/L lactic acid, pH 2.85. Normalized values and weighted and summed scores were calculated for each strain as described above for malate.

[2] = test system: Saccharomyces bayanus ATCC 90739; test: as above
Method: as §1, §2

Saccharomyces javensis [3] = test: as above
Method: as §1, §2

[4] = test system: Candida lambica ATCC 38617; test: as above
Method: as §1, §2

[5] = test system: Saccharomyces bulderi ATCC MYA-402; test: as above
Method: as §1, §2

[6] = test system: Kodamaea ohmeri ATCC 20282; test: as above
Method: as §1, §2

[7] = test system: Issatchenkia orientalis CD1822; test: as above
Method: as §1, §2

[8] = test system: Issatchenkia orientalis ATCC PTA-6658; test: as above
Method: as §1, §2

[9] = test system: Candida milleri ATCC 60592; test: as above
Method: as §1, §2

[10] = test system: Candida sorbosivorans ATCC 38619; test: as above; conditions: Candida sorosivorans, scale 0 to 1
Method: as §1, §2

[11] = test system: Issatchenkia orientalis ATCC 24210; test: as above
Method: as §1, §2

[12] = test system: Saccharomyces bulderi ATCC MYA-404; test: as above
Method: as §1, §2

Candida geochares [13] = test: as above
Method: as §1, §2

[14] = test system: Candida zemplinina PYCC 04-501; test: Glucose consumption rate in YPD shake flasks (second secondary screen); conditions: 50 g/L lactic acid, pH 2.85, scale 0 to 1
Method: (§3) For the second secondary screen, glucose consumption was measured in YPD media containing 0 g/L malate at pH 3.0 or 200 g/L malate at pH 2.85. Shake flasks were inoculated with biomass harvested from seed flasks grown overnight to an OD600 of 6 to 10. 250 mL baffled glycolytic assay flasks (50 mL working volume) were inoculated to an OD600 of 0.1 and grown at 250 RPM and 30° C. Samples were taken throughout the time course of the assay and analyzed for glucose consumption using a 2700 Biochemistry Analyzer (Yellow Springs Instruments, YSI). The resulting data was plotted and glucose consumption rates were established.
as §2

[15] = test system: Saccharomyces bayanus ATCC 90739; test: as above; conditions: 50 g/L lactic acid, pH 2.85, scale 0 to 1
Method: as §3, §2

Saccharomyces javensis [16] = test: as above; conditions: 50 g/L lactic acid, pH 2.85, scale 0 to 1
Method: as §3, §2

[17] = test system: Candida lambica ATCC 38617; test: as above; conditions: 50 g/L lactic acid, pH 2.85, scale 0 to 1
Method: as §3, §2

[18] = test system: Saccharomyces bulderi ATCC MYA-402; test: as above; conditions: 50 g/L lactic acid, pH 2.85, scale 0 to 1
Method: as §3, §2

[19] = test system: Kodamaea ohmeri ATCC 20282; test: as above; conditions: 50 g/L lactic acid, pH 2.85, scale 0 to 1
Method: as §3, §2

[20] = test system: Issatchenkia orientalis CD1822; test: as above; conditions: 50 g/L lactic acid, pH 2.85, scale 0 to 1
Method: as §3, §2

[21] = test system: Issatchenkia orientalis ATCC PTA-6658; test: as above; conditions: 50 g/L lactic acid, pH 2.85, scale 0 to 1
Method: as §3, §2

[22] = test system: Candida milleri ATCC 60592; test: as above; conditions: 50 g/L lactic acid, pH 2.85, scale 0 to 1
Method: as §3, §2

[23] = test system: Candida sorbosivorans ATCC 38619; test: as above; conditions: Candida sorosivorans; 50 g/L lactic acid, pH 2.85; scale 0 to 1
Method: as §3, §2

[24] = test system: Issatchenkia orientalis ATCC 24210; test: as above; conditions: 50 g/L lactic acid, pH 2.85, scale 0 to 1
Method: as §3, §2

[25] = test system: Saccharomyces bulderi ATCC MYA-404; test: as above; conditions: 50 g/L lactic acid, pH 2.85, scale 0 to 1
Method: as §3, §2

Candida geochares [26] = test: as above; conditions: 50 g/L lactic acid, pH 2.85, scale 0 to 1
Method: as §3, §2

## CC(O)C(=O)O (stereo not drawn) [lactic acid]
[1]; lactic acid, scale 0 to 1
  Normalized grade: Growth rate slope: 0.95
[1]; pH 2.85, scale 0 to 1
  Normalized grade: Growth rate 50 g/L lactic acid: 0.22
[2]; lactic acid, scale 0 to 1
  Normalized grade: Growth rate slope: 0.91
[2]; pH 2.85, scale 0 to 1
  Normalized grade: Growth rate 50 g/L lactic acid: 0.08
Saccharomyces javensis [3]; lactic acid, scale 0 to 1
  Normalized grade: Growth rate slope: 0.68
Saccharomyces javensis [3]; pH 2.85, scale 0 to 1
  Normalized grade: Growth rate 50 g/L lactic acid: 0.11
[4]; lactic acid, scale 0 to 1
  Normalized grade: Growth rate slope: 1
[4]; pH 2.85, scale 0 to 1
  Normalized grade: Growth rate 50 g/L lactic acid: 0.92
[5]; lactic acid, scale 0 to 1
  Normalized grade: Growth rate slope: 0.23
[5]; pH 2.85, scale 0 to 1
  Normalized grade: Growth rate 50 g/L lactic acid: 0.5
[6]; lactic acid, scale 0 to 1
  Normalized grade: Growth rate slope: 0
[6]; pH 2.85, scale 0 to 1
  Normalized grade: Growth rate 50 g/L lactic acid: 0.42
[7]; lactic acid, scale 0 to 1
  Normalized grade: Growth rate slope: 0.86
[7]; pH 2.85, scale 0 to 1
  Normalized grade: Growth rate 50 g/L lactic acid: 1.00
[8]; lactic acid, scale 0 to 1
  Normalized grade: Growth rate slope: 0.95
[8]; pH 2.85, scale 0 to 1
  Normalized grade: Growth rate 50 g/L lactic acid: 0.94
[9]; lactic acid, scale 0 to 1
  Normalized grade: Growth rate slope: 0.64
[9]; pH 2.85, scale 0 to 1
  Normalized grade: Growth rate 50 g/L lactic acid: 0
[10]; lactic acid
  Normalized grade: Growth rate slope: 0.95
[10]; pH 2.85
  Normalized grade: Growth rate 50 g/L lactic acid: 0.28
[11]; lactic acid, scale 0 to 1
  Normalized grade: Growth rate slope: 0.73
[11]; pH 2.85, scale 0 to 1
  Normalized grade: Growth rate 50 g/L lactic acid: 0.89
[12]; lactic acid, scale 0 to 1
  Normalized grade: Growth rate slope: 0.45
[12]; pH 2.85, scale 0 to 1
  Normalized grade: Growth rate 50 g/L lactic acid: 0.47
Candida geochares [13]; lactic acid, scale 0 to 1
  Normalized grade: Growth rate slope: 0.27
Candida geochares [13]; pH 2.85, scale 0 to 1
  Normalized grade: Growth rate 50 g/L lactic acid: 0.17
[14]
  Normalized grade: Glycolic rate: 1
[15]
  Normalized grade: Glycolic rate: 0.96
Saccharomyces javensis [16]
  Normalized grade: Glycolic rate: 0
[17]
  Normalized grade: Glycolic rate: 1
[18]
  Normalized grade: Glycolic rate: 1
[19]
  Normalized grade: Glycolic rate: 0.76
[20]
  Normalized grade: Glycolic rate: 1
[21]
  Normalized grade: Glycolic rate: 1
[22]
  Normalized grade: Glycolic rate: 0.92
[23]
  Normalized grade: Glycolic rate: 0.59
[24]
  Normalized grade: Glycolic rate: 1
[25]
  Normalized grade: Glycolic rate: 1
Candida geochares [26]
  Normalized grade: Glycolic rate: 0.69
